# Test results taken from paper PMC8536124 (International Journal of Molecular Sciences, 2021).
# Experiments:
# [1] = tested on: HOP-62; experiment: NCI-60 screening (SRB); format: cell-based, human; settings: five-dose; for GI50 / LC50: Homo sapiens
# [2] = tested on: KM12; experiment: NCI-60 screening (SRB); format: cell-based, human; settings: five-dose; for GI50 / CC50: Homo sapiens; for CC50: read-out: LC50 (the source's name)
# [3] = tested on: A375 cells; experiment: Cell morphology and confluence; format: cell-based, human; settings: 24 h
# Procedure: A morphological examination of the tested cells was conducted in order to provide additional data for the investigated compounds in terms of their biological activity.
# [4] = tested on: MDA-MB-435; experiment: NCI-60 screening (SRB); format: cell-based, human; settings: five-dose; for GI50 / CC50: Homo sapiens; for CC50: read-out: LC50 (the source's name)
# [5] = tested on: IGROV1; experiment: NCI-60 screening (SRB); format: cell-based, human; settings: for GI50 / CC50: Homo sapiens, IGROV-1, five-dose; for CC50: read-out: LC50 (the source's name); for TGI: five-dose
# [6] = tested on: DU-145; experiment: NCI-60 screening (SRB); format: cell-based, human; settings: five-dose; for GI50 / CC50: Homo sapiens; for CC50: read-out: LC50 (the source's name)
# [7] = tested on: K-562; experiment: NCI-60 screening (SRB); format: cell-based, human; settings: for GI50 / CC50: Homo sapiens, K562, five-dose; for CC50: read-out: LC50 (the source's name); for TGI: five-dose
# [8] = tested on: MOLT-4; experiment: NCI-60 screening (SRB); format: cell-based, human; settings: five-dose; for GI50 / CC50: Homo sapiens; for CC50: read-out: LC50 (the source's name)
# [9] = tested on: RPMI-8226; experiment: NCI-60 screening (SRB); format: cell-based, human; settings: five-dose; for GI50 / CC50: Homo sapiens; for CC50: read-out: LC50 (the source's name)
# [10] = tested on: chorioallantoic membrane; experiment: HET-CAM irritation assay; settings: for Irritation Score: 300 µL, 5 min, test compounds 1 µM, scale 0 to 21; for Type of Effect: Luepke scale
# From the text: In this assay, the irritation potential may range from 0 to 21, with 0 being non-irritant and 21 being the most irritant. […] The irritation score was established according to Luepke scale: 0–0.9 indicates non-irritant, 1–4.9 indicates weakly irritant, 5–8.9 indicates moderately irritant, while 9–21 means strongly irritant (Table 6) [88, 89].
# The in vivo Hen’s Egg Chorioallantoic Membrane Test (HET-CAM) assay determines a potential irritant effect on the vascular plexus of the chorioallantoic membrane [94]. The HET-CAM method was carried out following ICCVAM recommendations published in November 2016 in Appendix G and adapted to our conditions [88, 95, 96]. Thus, a volume of 300 µL of control or test solution was applied and the modifications produced at the CAM level were monitored by means of stereomicroscopy (Discovery 8 Stereomicroscope, Zeiss), registering significant images (Axio CAM 105 color, Zeiss), before application after 5 min of contact with the samples. All images were processed using Zeiss ZEN software, Gimp 2.8, and ImageJ software.
# Negative control was represented by distilled water and solvent control DMSO 0.5%, and positive control by sodium lauryl sulphate (SLS) 0.5% in distillate water. The test substances were tested in concentrations of 1 µM.
# Finally, the following reactions were: hemorrhage—H (blood vessel bleeding), vascular lysis—L (disintegration of blood vessels), coagulation—C (intra- or extra-vascular protein denaturizing). A variety of analysis methods may be used to assess irritancy potential of test substances. One analysis method that has been used extensively is an irritation score (IS). The formula used to generate an IS value is:(1) IS=5×301−Sec H/300+7×300−Sec L/300+9×301−Sec C/300 where: H = hemorrhage; L = vessel lysis; C = coagulation; hemorrhage time (Sec H) = onset of hemorrhage reactions on CAM (in seconds); lysis time (Sec L) = onset of vessel lysis on CAM (in seconds); coagulation time (Sec C) = onset of coagulation formation on CAM (in seconds). Means values are obtained. […] The IS values range on a scale between 0 and 21.
# [11] = tested on: CNS cancer; experiment: cells; format: cell-based; settings: for TGI MG_MID / GI50 / CC50: CNS cancer subpanel, five-dose; for SI (TGI): CNS cancer, MG_MID60/subpanel MG_MID; for GI50 / CC50: Homo sapiens; for GI50: read-out: GI50 MG_MID; for CC50: read-out: LC50 MG_MID
# From the text: The experimental data allow the assessment of the cytostatic effect, indicated by growth inhibition values ranging between 0 and 100, as well as of the cytotoxic effect, indicated by negative values.
# The mean GI50 (molar concentration of the compound that inhibits 50% net cell growth), TGI (molar concentration of the compound leading to the total inhibition), and LC50 (molar concentration of the compound leading to 50% net cell death (presented in negative logarithm)) values across each cell line are shown in Table 2.
# The selectivity index (SI), calculated as the ratio between the full panel MG_MID60 (μM) of compounds 4, 6, and 9 by their respective subpanels MG_MID of the cell line (μM), was introduced as a quantification tool for the selectivity of each compound in terms of anticancer effect (Table 3).
# Primary anticancer assays were performed according to the NCI protocol, as described elsewhere (see e.g., http://dtp.nci.nih.gov accessed on 1 November 2018). The compounds were added at a single concentration, and the cell cultures were incubated for 48 h. The end point determinations were made with a protein-binding dye, sulforhodamine B (SRB). […] The percentage of growth was evaluated spectrophotometrically versus controls not treated with test agents after 48 h exposure and using SRB protein assay to estimate cell viability or growth. Three antitumor activity dose-response parameters were calculated for each cell line. Furthermore, mean graph midpoints (MG_MID) were calculated for each of the parameters, giving an average activity parameter over all cell lines for the tested compound. For the MG_MID calculation, insensitive cell lines were included with the highest concentration tested.
# [12] = Compound stability in cell culture media (TLC); settings: 5 μM in DMEM and EMEM, 72 h
# Procedure: Prior to this assay, compound stability in cell culture media was evaluated after 72 h, using a thin-layer chromatography (TLC)-based protocol, with the necessary modifications [57, 58].
# The stability of the assessed compounds in the culture media was evaluated by thin layer chromatography (TLC), this representing a viable and easy to achieve technique for this specific endpoint [57, 58]. […] The solutions were incubated for 72 h, after which the medium was extracted in CHCl3. […] The plate was successively developed with I2 vapors, UV light, and bromocresol green to determine various additional spots corresponding to some decomposition byproducts.
# [13] = tested on: HCC-2998; experiment: NCI-60 screening (SRB); format: cell-based, human; settings: five-dose; for GI50 / CC50: Homo sapiens; for CC50: read-out: LC50 (the source's name)
# [14] = tested on: SK-MEL-28 cells; experiment: DAPI staining, nuclear morphology; format: cell-based, human; settings: SK-MEL28, 24 h
# Procedure: (§1) The cells were cultured in 24-well plates at 2 × 10^5 cells/well. Two samples (compounds 4 and 6) of three different concentrations (0.1, 1, and 5 μM) and three concentrations of DMSO (0.1, 1, 5 μM) were used to stimulate the cells. The immunofluorescent staining technique was performed according to the protocol in [92]. Thus, after 24 h of stimulation, the cells were fixed by adding 4% paraformaldehyde and incubating at room temperature for one hour. After fixation, cell permeability was performed with 2% Triton X solution in phosphate-buffered saline (PBS). After 30 min of incubation at room temperature, blocking of permeabilization was performed with 0.01% Triton X solution and incubation at RT for one hour. DAPI staining was used in a concentration of 300 nM to visualize the nuclei. The cells were analyzed by fluorescence microscope at 40× magnification using CellSens V1.15 software (Olympus, Tokyo, Japan) and Image J software.
# [15] = tested on: RPMI cells; experiment: DAPI staining, nuclear morphology; format: cell-based, human; settings: 24 h
# Procedure: as §1
# [16] = tested on: SK-OV-3; experiment: NCI-60 screening (SRB); format: cell-based, human; settings: five-dose; for GI50 / CC50: Homo sapiens; for CC50: read-out: LC50 (the source's name)
# [17] = tested on: HCT-116; experiment: NCI-60 screening (SRB); format: cell-based, human; settings: five-dose; for GI50 / CC50: Homo sapiens; for CC50: read-out: LC50 (the source's name)
# [18] = tested on: MCF7; experiment: NCI-60 screening (SRB); format: cell-based, human; settings: five-dose; for GI50 / CC50: Homo sapiens; for CC50: read-out: LC50 (the source's name)
# [19] = tested on: T-47D; experiment: NCI-60 screening (SRB); format: cell-based, human; settings: five-dose; for GI50 / LC50 (concentration killing 50% of cells): Homo sapiens, T47D
# [20] = tested on: 786-0; experiment: NCI-60 screening (SRB); format: cell-based, human; settings: five-dose; for GI50 / CC50: Homo sapiens; for CC50: read-out: LC50 (the source's name)
# [21] = tested on: SR; experiment: NCI-60 screening (SRB); format: cell-based, human; settings: five-dose; for GI50 / CC50: Homo sapiens; for CC50: read-out: LC50 (the source's name)
smiles,measurement,setting,value
"CCN1CCN(C(=O)[C@]23CC[C@@H](C)[C@H](C)[C@H]2C2=CC[C@@H]4[C@@]5(C)CCC(=O)C(C)(C)[C@@H]5CC[C@@]4(C)[C@]2(C)CC3)CC1 [Compound 4, N-(3-oxo-ursan-12-en-28-oyl)-ethylpiperazine]",GI50,[1],1.38 µM
same,LC50,[1],> 50 µM
same,TGI,[1],3.09 µM
same,GI50,[2],1.03 µM
same,CC50,[2],4.79 µM
same,TGI,[2],2.22 µM
same,cell morphology and confluence,[3]; 0.1 μM,caused cell death
same,cell morphology and confluence,[3]; 1 and 5 μM,visible loss of cell confluence
same,GI50,[4],1.05 µM
same,CC50,[4],5.22 µM
same,TGI,[4],2.30 µM
same,GI50,[5],1.04 µM
same,CC50,[5],19.1 µM
same,TGI,[5],4.85 µM
same,GI50,[6],1.67 µM
same,CC50,[6],18.6 µM
same,TGI,[6],5.62 µM
same,GI50,[7],0.98 µM
same,CC50,[7],4.84 µM
same,TGI,[7],2.18 µM
same,GI50,[8],0.994 µM
same,CC50,[8],> 50 µM
same,TGI,[8],2.90 µM
same,GI50,[9],0.809 µM
same,CC50,[9],4.9 µM
same,TGI,[9],1.99 µM
same,Irritation Score,[10],0
same,Type of Effect,[10],Non-irritant
same,TGI MG_MID,[11],2.84 µM
same,SI (TGI),[11],0.96
same,GI50,[11],1.03 µM
same,CC50,[11],8.69 µM
same,stability in cell culture media (TLC),[12],no signs of decomposition
same,GI50,[13],0.922 µM
same,CC50,[13],3.6 µM
same,TGI,[13],1.82 µM
same,nuclear morphology (DAPI),[14]; 0.1 μM,intense condensation of the cell nuclei
same,nuclear morphology (DAPI),[14]; 1 μM,chromatin condensation is accompanied by the formation of apoptotic bodies
same,nuclear morphology (DAPI),[14]; 5 μM,incipient nuclear fragmentation
same,nuclear morphology (DAPI),[15]; 0.1 µM,massive chromatin condensation
same,nuclear morphology (DAPI),[15]; 1 µM,visible nuclear fragmentation
same,nuclear morphology (DAPI),[15]; 5 µM (highest concentration),blebbing of the nuclear membrane
same,GI50,[16],1.15 µM
same,CC50,[16],17.2 µM
same,TGI,[16],4.83 µM
same,GI50,[17],0.798 µM
same,CC50,[17],3.09 µM
same,TGI,[17],1.57 µM
same,GI50,[18],0.892 µM
same,CC50,[18],4.63 µM
same,TGI,[18],2.03 µM
same,GI50,[19],1.33 µM
same,LC50 (concentration killing 50% of cells),[19],> 50 µM
same,TGI,[19],3.89 µM
same,GI50,[20],0.814 µM
same,CC50,[20],3.56 µM
same,TGI,[20],1.70 µM
CCN1CCN(C(=O)[C@]23CCC(C)(C)C[C@H]2C2=CC[C@@H]4[C@@]5(C)C/C(=C/c6cccnc6)C(=O)C(C)(C)[C@@H]5CC[C@@]4(C)[C@]2(C)CC3)CC1 [Compound 6],GI50,[1],1.88 µM
same,LC50,[1],7.47 µM
same,TGI,[1],3.75 µM
same,GI50,[2],1.58 µM
same,CC50,[2],6.75 µM
same,TGI,[2],3.26 µM
same,cell morphology and confluence,"[3]; all concentrations (0.1, 1, 5 μM)",noticeable decrease in cell confluence
same,GI50,[4],1.48 µM
same,CC50,[4],6.52 µM
same,TGI,[4],3.11 µM
same,GI50,[5],1.91 µM
same,CC50,[5],9.1 µM
same,TGI,[5],4.16 µM
same,GI50,[21],0.959 µM
same,CC50,[21],> 100 µM
same,TGI,[21],5.13 µM
same,GI50,[6],1.83 µM
same,CC50,[6],8.23 µM
same,TGI,[6],3.88 µM
same,GI50,[7],0.443 µM
same,CC50,[7],> 100 µM
same,TGI,[7],3.34 µM
same,GI50,[8],1.43 µM
same,CC50,[8],> 100 µM
same,TGI,[8],>100 µM
same,GI50,[9],1.03 µM
same,CC50,[9],> 100 µM
same,TGI,[9],5.20 µM
same,Irritation Score,[10],0
same,Type of Effect,[10],Non-irritant
same,TGI MG_MID,[11],3.50 µM
same,SI (TGI),[11],1.80
same,GI50,[11],1.63 µM
same,CC50,[11],22.1 µM
same,stability in cell culture media (TLC),[12],no signs of decomposition
same,GI50,[13],1.58 µM
same,CC50,[13],6.17 µM
same,TGI,[13],3.12 µM
same,nuclear morphology (DAPI),"[14]; 0.1, 1, 5 μM","dose-dependent effect was recorded in terms of membrane blebbing, nuclear condensation, and fragmentation"
same,nuclear morphology (DAPI),[15]; 0.1 µM,nuclear fragmentation
same,nuclear morphology (DAPI),[15]; 1 µM,chromatin condensation
same,nuclear morphology (DAPI),[15]; 5 µM (highest concentration),apoptotic bodies
same,GI50,[16],4.19 µM
same,CC50,[16],76.1 µM
same,GI50,[17],1.01 µM
same,CC50,[17],4.89 µM
same,TGI,[17],2.22 µM
same,GI50,[18],1.4 µM
same,CC50,[18],6.71 µM
same,TGI,[18],3.07 µM
same,GI50,[19],2.61 µM
same,LC50 (concentration killing 50% of cells),[19],> 100 µM
same,TGI,[19],13.7 µM
same,GI50,[20],1.6 µM
same,CC50,[20],5.91 µM
same,TGI,[20],3.08 µM
"CCN1CCN(C(=O)[C@]23CC[C@@H](C)[C@H](C)[C@H]2C2=CC[C@@H]4[C@@]5(C)C/C(=C/c6cccnc6)C(=O)C(C)(C)[C@@H]5CC[C@@]4(C)[C@]2(C)CC3)CC1 [Compound 9, N-(2-{3-Pyridinylidene}-3-oxoursan-12-en-28-oyl)-ethylpiperazine]",GI50,[1],2.43 µM
same,LC50,[1],> 100 µM
same,TGI,[1],5.86 µM
same,GI50,[2],1.75 µM
same,CC50,[2],7.23 µM
same,TGI,[2],3.56 µM
same,GI50,[4],1.7 µM
same,CC50,[4],7.18 µM
same,TGI,[4],3.49 µM
same,GI50,[5],1.89 µM
same,CC50,[5],7.94 µM
same,TGI,[5],3.87 µM
same,GI50,[21],2.18 µM
same,CC50,[21],> 100 µM
same,TGI,[21],6.35 µM
same,GI50,[6],2.08 µM
same,CC50,[6],8.53 µM
same,TGI,[6],4.21 µM
same,GI50,[7],2.08 µM
same,CC50,[7],> 100 µM
same,TGI,[7],5.00 µM
same,GI50,[8],2.63 µM
same,CC50,[8],> 100 µM
same,TGI,[8],7.44 µM
same,GI50,[9],2.45 µM
same,CC50,[9],> 100 µM
same,TGI,[9],7.38 µM
same,TGI MG_MID,[11],4.41 µM
same,SI (TGI),[11],1.20
same,GI50,[11],1.71 µM
same,CC50,[11],13.6 µM
same,GI50,[13],1.55 µM
same,CC50,[13],5.79 µM
same,TGI,[13],3.00 µM
same,GI50,[16],2.7 µM
same,CC50,[16],90.1 µM
same,TGI,[16],9.02 µM
same,GI50,[17],1.69 µM
same,CC50,[17],7.43 µM
same,TGI,[17],3.55 µM
same,GI50,[18],1.64 µM
same,CC50,[18],7.14 µM
same,TGI,[18],3.42 µM
same,GI50,[19],2.79 µM
same,LC50 (concentration killing 50% of cells),[19],> 100 µM
same,TGI,[19],13.4 µM
same,GI50,[20],1.98 µM
same,TGI,[20],4.37 µM
